Read-outs that look alike come from different tables or passages of the source.

The values that follow come from patent publication US20190119196A1, “COMPOUNDS FOR THE TREATMENT OF […]” (priority 2016, published 2019).

Assay [1] deals with L6-myotubes. As to the kind of experiment: Measurement of intracellular cAMP levels (alpha screen cAMP kit). Type of assay: cell-based. The settings on record: agonist final concentration 1×10^−5, 15 min; differentiated cells; 1 mM IBMX. The method, then: (§1) L6-myoblasts were grown in Dulbecco's Modified Eagle's Medium (DMEM) containing 4,5 g/I glucose supplemented with 10% fetal bovine serum, 2 mM L-Glutamine, 50 U/ml penicillin, 50 μg/ml streptomycin and 10 mM HEPES. Cells were plated at 1×10^5 cells per ml in 24-well plates. After reaching 90% confluence the cells were grown in medium containing 2% FBS for 7 days where upon cells differentited into myotubes.
Differentiated cells were serum-starved over night and stimulated with agonist, final concentration 1×10−^5, for 15 min in stimulation buffer (HBSS supplemented with 1% BSA, 5 mM HEPES and 1 mM IBMX, pH 7,4) The medium was then aspirated and to end the reaction 100 μL of 95% EtOH was added to each well of a 24-well plate and cells were kept in −20° C. over night. The EtOH was let to evaporate and 500 μL of lysis buffer (1% BSA, 5 mM HEPES and 0,3% Tween-20, pH 7.4) was added to each well before put in −80° C. for 30 min and then kept in −20° C. Intracellular cAMP levels were detected using an alpha screen cAMP kit (6760635D from Perkin Elmer). The numerical values in the table are given as % increase over the basal level.
(Cyclic AMP is a second messenger, typically raised through Gs and lowered through Gi signalling.)

The test system of assay [2] is L6-myotubes. As to the kind of experiment: Glucose uptake in differentiated L6-myotubes (3H-2-deoxy-glucose). In kind it is cell-based. The settings on record: read-out: Biological example 1: glucose uptake, % increase over the basal level. The method, then: as §1
Differentiated L6-myotubes were serum-starved over night in medium containing 0.5% fatty-acid free BSA and stimulated with agonist, […], glucose free medium or PBS and another portion of agonist was added to glucose free medium. […] Cell lysate was mixed with scintillation buffer (Emulsifier Safe, Perkin Elmer and radioactivity detected in a β-counter (Tri-Carb 2800TR, Perkin Elmer). The numerical values in the table are given as % increase over the basal level.

A further assay deals with T1, human β2-adrenoceptor (Homo sapiens, UniProt P07550).
T1 construct: expressed in transfected cells
T1 sequence (P07550 whole entry): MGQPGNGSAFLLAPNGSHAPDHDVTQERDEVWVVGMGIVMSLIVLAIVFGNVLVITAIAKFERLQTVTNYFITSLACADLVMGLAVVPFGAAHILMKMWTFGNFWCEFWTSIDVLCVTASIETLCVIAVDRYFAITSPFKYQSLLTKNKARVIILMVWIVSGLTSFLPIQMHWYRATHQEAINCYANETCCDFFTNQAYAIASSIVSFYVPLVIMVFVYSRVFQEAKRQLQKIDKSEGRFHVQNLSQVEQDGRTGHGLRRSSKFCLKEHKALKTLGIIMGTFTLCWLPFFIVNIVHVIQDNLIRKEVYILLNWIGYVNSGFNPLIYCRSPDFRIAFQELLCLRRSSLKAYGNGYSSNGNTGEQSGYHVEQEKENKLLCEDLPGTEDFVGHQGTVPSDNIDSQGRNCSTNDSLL
As to the kind of experiment: 3H-CGP 12177 whole cell β2 binding. The method, then:
^3H-CGP 12177 Whole Cell β2 Binding
Chinese Hamster Ovary (CHO) cells stably expressing the human β2-adrenoceptor were grown in Dulbecco's modified Eagle's medium nutrient mix F12 (DMEM/F12) containing 10% fetal calf serum and 2 mM L-glutamine in a 37° C. humidified 5% CO2:95% air atmosphere. The cells were seeded (100 000 cells/mL) into white-sided, clear-bottomed 96-well isoplates and allowed to grow to confluence for the following day's experiment. Next day, the media was removed from each well of the isoplate. Aliquots of the test compounds (10^−2 M in DMSO) were diluted in DMEM/F12 containing 2 mM L-glutamine (serum-free media) to final concentration ranges of 10^−4 M to 10^−10 M and added to each well. The radioligand ^3H-CGP 12177 was diluted in the same medium (˜1 nM final well concentration) and added to each well. Propranolol and CGP 12177 (10 μM) were used to measure non-specific binding. The cells were incubated for 2 hours at 37° C. After incubation, the cells were washed twice by the addition and removal of 200 μL ice-cold phosphate-buffered saline (PBS). Cells were then lysed with Optiphase Supermix cocktail (100 μL/well) and a clear sealant top was applied to the plate. The plate was left overnight in the dark at room temperature, centrifuged (1000 rpm, 1 min) and measured in a MicroBeta2 Microplate Counter (Perkin Elmer) (10 minutes pre-incubation, 2 min counts/well).
All data points on each binding curve were measured in duplicates. Each 96-well plate also contained four determinations of total and non-specific binding. Non-specific binding was determined in the presence of CGP 12177 and propranolol (10 μM). […] All data points are measured in counts per minute (CPM) and converted into disintegrations per minute (DPM) by dividing the count rate (CPM) with the counting efficiency of the instruments detector (57%). The numerical values were obtained by using the GraphPad Prism 7 programme and are given as -log K (pKi) in the table.

[3] abbreviates: CHO cells stably expressing the human β2-adrenoceptor, ~1 nM 3H-CGP 12177, 2 hours at 37° C., read-out: Biological example 3: -log K (pKi), 3H-CGP 12177 whole cell β2 binding (converted).
The mark [4] stands for this setting: agonist final concentration 1×10^−5, differentiated L6-myotubes, 50 nM 3H-2-deoxy-glucose.

For `CCCC(C)NCC(O)c1ccc(O)cc1` (stereo not shown) [Example 8, 4-(1-Hydroxy-2-(pentan-2-ylamino)ethyl)phenol acetate], the “Biological example 2: intracellular cAMP levels, % increase over the basal level” value with L6-myotubes [1] stood at 15%. Moreover, the activation in the assay with L6-myotubes [2] turned out to be 12%. The Ki on human β2-adrenoceptor (setting [3]) was 20 µM.
Consider `CCC(C)NCC(O)c1ccc(O)cc1` (stereo not shown) [Example 5, 4-(2-(sec-Butylamino)-1-hydroxyethyl)phenol], for which the “Biological example 2: intracellular cAMP levels, % increase over the basal level” value with L6-myotubes [1] is on record as 18%. Moreover, in the assay with L6-myotubes [2] (setting [4]), the activation worked out at 39%. Further, the Ki on human β2-adrenoceptor (setting [3]) was 5.01 µM.
The like results for `Oc1ccc(C(O)CNCC2CC2)cc1` (stereo not shown) [Example 3, 4-(2-((Cyclopropylmethyl)amino)-1-hydroxyethyl)phenol] were, in that order, 18%, 86% and 25.1 µM.
Consider `CCCC(C)NCC(O)c1ccc(Cl)c(O)c1` (mixture of isomers) [Example 33, 2-Chloro-5-(1-hydroxy-2-(pentan-2-ylamino)ethyl)phenol], for which the “Biological example 2: intracellular cAMP levels, % increase over the basal level” value in the assay on L6-myotubes [1] worked out at 1191%. In the assay with L6-myotubes [2] (setting [4]), the activation was 55%. Moreover, the Ki on human β2-adrenoceptor (setting [3]) was 1 µM.
Regarding `CCCCNCC(O)c1cc(O)cc(O)c1` (stereo not shown) [Example 25, 5-(2-(Butylamino)-1-hydroxyethyl)benzene-1,3-diol hemisulphate], the “Biological example 2: intracellular cAMP levels, % increase over the basal level” value in the assay with L6-myotubes [1] came out at 115%. Moreover, in the assay on L6-myotubes [2] (setting [4]), the activation worked out at 32%. Moreover, on human β2-adrenoceptor (setting [3]), the Ki is 39.8 µM.
Regarding `CCCCNCC(O)c1cc(Cl)c(O)c(Cl)c1` (stereo not shown) [Example 26, 4-(2-(Butylamino)-1-hydroxyethyl)-2,6-dichlorophenol], the “Biological example 2: intracellular cAMP levels, % increase over the basal level” value with L6-myotubes [1] is −0.3%. Further, the activation with L6-myotubes [2] was found to be 10%. For the same molecule, the Ki on human β2-adrenoceptor (setting [3]) is 25.1 µM.
For the molecule `CCCCNCC(O)c1cc(F)c(N)c(F)c1` (stereo not shown) [Example 35, 1-(4-Amino-3,5-difluorophenyl)-2-(butylamino)ethan-1-ol], the “Biological example 2: intracellular cAMP levels, % increase over the basal level” value in the assay with L6-myotubes [1] is reported as 6536%. Further, the activation in the assay with L6-myotubes [2] (setting [4]) was determined as 65%. Moreover, the Ki at human β2-adrenoceptor (setting [3]) was 3.98 µM.
Turning to `Oc1ccc(C(O)CNCC2CCCCC2)cc1` (stereo not shown) [Example 6, 4-(2-((Cyclohexylmethyl)amino)-1-hydroxyethyl)phenol], the “Biological example 2: intracellular cAMP levels, % increase over the basal level” value in the assay with L6-myotubes [1] turned out to be 3%. Further, in the assay on L6-myotubes [2] (setting [4]), the activation came out at 23%. Further, the Ki at human β2-adrenoceptor (setting [3]) is 10 µM.
Consider `CCCC(C)NCC(O)c1cc(Cl)c(N)c(C(F)(F)F)c1` (mixture of isomers) [Example 31, 1-(4-amino-3-chloro-5-(trifluoromethyl)phenyl)-2-(pentan-2-ylamino)ethan-1-ol], for which, in the assay on L6-myotubes [1], the “Biological example 2: intracellular cAMP levels, % increase over the basal level” value was 439%. In addition, the activation in the assay on L6-myotubes [2] (setting [4]) is 36%. In addition, on human β2-adrenoceptor, the Ki is 0.0316 µM.
Turning to `Oc1ccc(C(O)CNC23CC4CC(CC(C4)C2)C3)cc1` (stereo not shown) [Example 9, 4-(2-(adamantan-1-ylamino)-1-hydroxyethyl)phenol hemisulfate], the “Biological example 2: intracellular cAMP levels, % increase over the basal level” value in the assay with L6-myotubes [1] was found to be 4%. Moreover, the activation in the assay with L6-myotubes [2] (setting [4]) came to 18%. In addition, the Ki on human β2-adrenoceptor (setting [3]) was 50.1 µM.
`CCCCNCC(O)c1cccc(O)c1` (stereo not shown) [Example 14, 3-(2-(Butylamino)-1-hydroxyethyl)phenol]: the “Biological example 2: intracellular cAMP levels, % increase over the basal level” value in the assay on L6-myotubes [1] is 20%. Besides, in the assay with L6-myotubes [2] (setting [4]), the activation stood at 17%. Also, on human β2-adrenoceptor (setting [3]), the Ki is 15.8 µM.
In the case of `Oc1ccc(C(O)CNCCC2CCCCC2)cc1` (stereo not shown) [Example 16, 4-(2-((2-Cyclohexylethyl)amino)-1-hydroxyethyl)phenol acetate], the “Biological example 2: intracellular cAMP levels, % increase over the basal level” value with L6-myotubes [1] is on record as −56%. Also, in the assay on L6-myotubes [2] (setting [4]), the activation came to 23%. Also, the Ki on human β2-adrenoceptor (setting [3]) is 5.01 µM.
`Oc1ccc(C(O)CNCCCC(F)(F)F)cc1` (stereo not shown) [Example 24, 4-(1-Hydroxy-2-((4,4,4-trifluorobutyl)amino)ethyl)phenol acetate]: the activation in the assay with L6-myotubes [2] (setting [4]) worked out at 22%. In addition, at human β2-adrenoceptor (setting [3]), the Ki is 10 µM.
In the case of `Oc1ccc(C(O)CNCCCC2CC2)cc1` (stereo not shown) [Example 23, 4-(2-((3-Cyclopropylpropyl)amino)-1-hydroxyethyl)phenol acetate], in the assay on L6-myotubes [2] (setting [4]), the activation was determined as 28%. The Ki on human β2-adrenoceptor (setting [3]) was 7.94 µM.
